Measured values taken from ChEMBL document CHEMBL2177034, “Inhibition of hypoxia inducible factor-2 transcription: isolation of active modulators from marine sponges” (J Nat Prod, 2012).
Calls of active or inactive are those of the source. No cut-off for these calls is given here.

Columns and labels:
786-0 [1] = assay: Inhibition of HIF-mediated VEGFA protein expression in serum deprived human 786-0 cells at 20 uM after 48 hrs relative to control; assay type: cell-based
[2] = biological target: T1, Endothelial PAS domain-containing protein 1 (Homo sapiens, UniProt Q99814); assay: Inhibition of HIF2alpha in human 786-0 cells assessed as reduction in CCND1 mRNA expression at 20 uM after 48 hrs by RT-PCR analysis; assay type: cell-based
T1 sequence (Q99814 whole entry, the tested form may be a part): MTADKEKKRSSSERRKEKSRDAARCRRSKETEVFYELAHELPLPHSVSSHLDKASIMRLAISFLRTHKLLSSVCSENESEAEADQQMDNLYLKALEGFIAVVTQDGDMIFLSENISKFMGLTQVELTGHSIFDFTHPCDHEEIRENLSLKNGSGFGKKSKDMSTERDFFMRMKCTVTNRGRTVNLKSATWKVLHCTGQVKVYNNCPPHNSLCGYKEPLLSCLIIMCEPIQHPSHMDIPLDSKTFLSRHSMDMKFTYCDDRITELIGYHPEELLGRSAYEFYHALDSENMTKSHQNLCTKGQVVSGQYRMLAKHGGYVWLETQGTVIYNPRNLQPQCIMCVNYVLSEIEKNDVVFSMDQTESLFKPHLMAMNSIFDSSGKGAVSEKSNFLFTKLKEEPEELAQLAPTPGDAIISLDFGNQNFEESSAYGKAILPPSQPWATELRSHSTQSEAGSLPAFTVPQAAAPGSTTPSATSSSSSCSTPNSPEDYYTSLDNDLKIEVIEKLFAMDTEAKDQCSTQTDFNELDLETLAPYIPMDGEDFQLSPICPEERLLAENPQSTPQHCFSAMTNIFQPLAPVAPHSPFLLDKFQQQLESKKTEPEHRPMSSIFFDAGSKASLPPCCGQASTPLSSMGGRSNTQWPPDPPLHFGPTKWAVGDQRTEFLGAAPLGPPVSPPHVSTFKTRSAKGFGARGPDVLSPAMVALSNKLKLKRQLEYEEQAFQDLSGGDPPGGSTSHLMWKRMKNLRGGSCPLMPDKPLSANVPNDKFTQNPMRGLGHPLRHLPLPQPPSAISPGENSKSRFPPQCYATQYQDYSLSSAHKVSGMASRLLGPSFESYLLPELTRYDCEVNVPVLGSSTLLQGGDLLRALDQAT

[3] = biological target: T1, Endothelial PAS domain-containing protein 1; assay: Inhibition of HIF2alpha in human 786-0 cells assessed as reduction in TGFalpha mRNA expression at 20 uM after 48 hrs by RT-PCR analysis; assay type: cell-based
[4] = biological target: Hypoxia-inducible factor 1-alpha (Homo sapiens) (UniProt Q16665); assay: Inhibition of HIF1alpha in human SK-RC-28 cells assessed as reduction in carbonic anhydrase 9 expression at 20 uM after 48 hrs by RT-PCR analysis; assay type: cell-based
Chain of Hypoxia-inducible factor 1-alpha (Homo sapiens) (Q16665 whole entry, looked up, the tested form may be a part): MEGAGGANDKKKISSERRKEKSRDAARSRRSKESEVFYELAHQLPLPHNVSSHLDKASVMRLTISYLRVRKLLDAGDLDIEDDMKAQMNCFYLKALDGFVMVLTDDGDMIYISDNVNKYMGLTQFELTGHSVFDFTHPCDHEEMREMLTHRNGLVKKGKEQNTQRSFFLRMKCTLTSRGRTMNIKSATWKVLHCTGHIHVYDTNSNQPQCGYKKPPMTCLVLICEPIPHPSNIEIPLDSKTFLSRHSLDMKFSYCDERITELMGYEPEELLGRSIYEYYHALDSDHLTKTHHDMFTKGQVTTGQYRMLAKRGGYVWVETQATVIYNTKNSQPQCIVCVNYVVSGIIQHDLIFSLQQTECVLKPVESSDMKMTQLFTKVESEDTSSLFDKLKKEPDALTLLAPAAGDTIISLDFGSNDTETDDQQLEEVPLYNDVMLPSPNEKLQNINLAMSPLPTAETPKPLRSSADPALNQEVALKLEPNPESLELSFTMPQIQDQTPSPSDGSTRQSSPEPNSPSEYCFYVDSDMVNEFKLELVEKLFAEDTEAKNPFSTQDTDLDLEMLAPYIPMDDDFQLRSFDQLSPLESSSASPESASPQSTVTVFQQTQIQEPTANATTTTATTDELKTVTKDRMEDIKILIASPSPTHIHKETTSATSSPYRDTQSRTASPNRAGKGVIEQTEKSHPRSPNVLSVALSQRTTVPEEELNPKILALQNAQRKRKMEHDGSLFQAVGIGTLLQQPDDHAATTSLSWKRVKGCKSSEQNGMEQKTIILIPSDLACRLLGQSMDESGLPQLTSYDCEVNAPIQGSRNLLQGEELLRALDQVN

[5] = Downregulation of actin mRNA expression in human RCC4 cells expressing HIF1alpha and HIF2alpha at 20 uM after 48 hrs by RT-PCr analysis; assay type: ADME, cell-based; settings: rcc4, 48 h
[6] = biological target: Hypoxia inducible factors; HIF-1-alpha, HIF-2-alpha (Homo sapiens) (UniProt Q16665+Q99814); assay: Inhibition of HIF1alpha/2alpha in human RCC4 cells assessed as reduction in VEGFA mRNA expression at 20 uM after 48 hrs by RT-PCR analysis; assay type: cell-based
786-0 [7] = assay: Downregulation of HIF1alpha mRNA expression in human 786-0 cells at 20 uM after 48 hrs by RT-PCR analysis; assay type: functional, cell-based
786-0 [8] = assay: Cytotoxicity against human 786-0 cells expressing HIF2alpha after 2 days by XTT assay; assay type: functional, cell-based; settings: 786-0, 48 h
[9] = (§1) Downregulation of HIF1alpha mRNA expression in human RCC4 cells at 20 uM after 48 hrs by RT-PCR analysis; assay type: functional, cell-based
[10] = (§2) Downregulation of HIF2alpha mRNA expression in human RCC4 cells at 20 uM after 48 hrs by RT-PCR analysis; assay type: functional, cell-based
[11] = biological target: Hypoxia-inducible factor 1-alpha (Homo sapiens) (UniProt Q16665); assay: Inhibition of HIF1alpha in human SK-RC-28 cells assessed as reduction in VEGFA expression at 20 uM after 48 hrs by RT-PCR analysis; assay type: cell-based
[12] = Downregulation of CCND1 mRNA expression in human SK-RC-28 cells at 20 uM after 48 hrs by RT-PCR analysis; assay type: functional, cell-based
[13] = biological target: T1, Endothelial PAS domain-containing protein 1; assay: Inhibition of HIF2alpha in human 786-0 cells assessed as reduction in VEGFA mRNA expression at 20 uM after 48 hrs by RT-PCR analysis; assay type: cell-based
[14] = Downregulation of HIF1alpha mRNA expression in human SK-RC-28 cells at 20 uM after 48 hrs by RT-PCR analysis; assay type: functional, cell-based
[15] = Cytotoxicity against human SK-RC-28 cells expressing HIF1alpha after 2 days by XTT assay; assay type: functional, cell-based; settings: 48 h
[16] = Cytotoxicity against human RCC4 cells expressing HIF2alpha and HIF1alpha after 2 days by XTT assay; assay type: functional, cell-based; settings: RCC4, 48 h
[17] = biological target: T1, Endothelial PAS domain-containing protein 1; assay: Inhibition of HIF2alpha in human RCC4 cells coexpressing HIF1alpha assessed as reduction in GLUT1 mRNA expression at 20 uM after 48 hrs by RT-PCR analysis; assay type: cell-based
[18] = as §2; assay type: functional, cell-based; remark: listed apart in the source
[19] = biological target: T1, Endothelial PAS domain-containing protein 1; assay: Inhibition of HIF2alpha in human 786-0 cells assessed as reduction in GLUT1 mRNA expression at 20 uM after 48 hrs by RT-PCR analysis; assay type: cell-based
[20] = Downregulation of HIF2alpha mRNA expression in human SK-RC-28 cells at 20 uM after 48 hrs by RT-PCR analysis; assay type: functional, cell-based
786-0 [21] = assay: Downregulation of carbonic anhydrase 9 expression in human 786-0 cells at 20 uM after 48 hrs by RT-PCR analysis; assay type: functional, cell-based
786-0 [22] = assay: Downregulation of HIF2alpha mRNA expression in human 786-0 cells at 20 uM after 48 hrs by RT-PCR analysis; assay type: functional, cell-based
786-0 [23] = assay: Downregulation of actin mRNA expression in human […] at 20 uM after 48 hrs by RT-PCr analysis; assay type: ADME, cell-based; settings: 786-0, 48 h
[24] = Downregulation of GLUT1 mRNA expression in human SK-RC-28 cells at 20 uM after 48 hrs by RT-PCR analysis; assay type: functional, cell-based
[25] = as §1; assay type: functional, cell-based; remark: listed apart in the source
[26] = Downregulation of actin mRNA expression in human SK-RC-28 cells expressing HIF2alpha at 20 uM after 48 hrs by RT-PCr analysis; assay type: ADME, cell-based
[27] = biological target: T1, Endothelial PAS domain-containing protein 1; assay: Inhibition of HIF2alpha in human RCC4 cells coexpressing HIF1alpha assessed as reduction in TGFalpha mRNA expression at 20 uM after 48 hrs by RT-PCR analysis; assay type: cell-based
[28] = biological target: T1, Endothelial PAS domain-containing protein 1; assay: Inhibition of HIF2alpha in human 786-0 cells expressing truncated HIF1alpha assessed as reduction in luciferase activity after 24 hrs by reporter gene assay; assay type: cell-based
[29] = Downregulation of TGFalpha mRNA expression in human SK-RC-28 cells at 20 uM after 48 hrs by RT-PCR analysis; assay type: functional, cell-based
786-0 [30] = assay: Inhibition of total protein expression in serum deprived human 786-0 cells at 20 uM after 48 hrs relative to control; assay type: cell-based; settings: 786-0, 48 h, 20 µM
[31] = biological target: Hypoxia-inducible factor 1-alpha (Homo sapiens) (UniProt Q16665); assay: Inhibition of HIF1alpha in human SK-RC-28 cells assessed as reduction in carbonic anhydrase expression at 20 uM after 48 hrs by RT-PCR analysis; assay type: cell-based
[32] = biological target: Hypoxia-inducible factor 1-alpha (Homo sapiens) (UniProt Q16665); assay: Inhibition of HIF1alpha in human RCC4 cells coexpressing HIF2alpha assessed as decrease in carbonic anhydrase 9 mRNA expression at 20 uM after 48 hrs by RT-PCR analysis; assay type: cell-based
[33] = biological target: T1, Endothelial PAS domain-containing protein 1; assay: Inhibition of HIF2alpha in human RCC4 cells coexpressing HIF1alpha assessed as reduction in CCND1 mRNA expression at 20 uM after 48 hrs by RT-PCR analysis; assay type: cell-based

In the case of `C#C[C@@H](O)/C=C/CCCCCCC#C[C@H](O)C#C/C=C/CC/C=C\CCCC/C=C\CCCCCCCCCCCCC/C=C/[C@@H](O)C#C` [NEOPETROFORMYNE A], the inhibition (786-0 [1]) is reported as “Active”, the inhibition [2] is reported as “Active” and the inhibition [3] is reported as “Active”. The inhibition [4] was “Active”, the Activity [5] was “Toxic” and the inhibition [6] was “Active”. For the same molecule, the Activity (786-0 [7]) was “Active”, the IC50 (786-0 [8]) was 14.4 µM and the Activity [9] was “Active”. The Activity [10] was “Active”, the inhibition [11] was “Active” and the Activity [12] was “Active”. The inhibition [13] was “Active”, the Activity [14] was “Active” and the IC50 [15] was 35.1 µM. The IC50 [16] was 27.5 µM, the inhibition [17] was “Active” and the Activity [18] was “Active”. For the same molecule, the inhibition [19] was “Active”, the Activity [20] was “Active” and the Activity (786-0 [21]) was “Active”. For the same molecule, the Activity (786-0 [22]) was “Active”, the Activity (786-0 [23]) was “Toxic” and the Activity [24] was “Active”. For the same molecule, the Activity [25] was “Active”, the Activity [26] was “Toxic” and the inhibition [27] was “Active”. For the same molecule, the EC50 [28] was 8.7 µM, the Activity [29] was “Active” and the Activity (786-0 [30]) was “Toxic”. The inhibition [31] was “Active”, the inhibition [32] was “Active” and the inhibition [33] was “Active”.
